These results are taken from patent US20200031848A1, “AR-V7 INHIBITORS” (Hoffmann-La Roche Inc., priority 2016, published 2020).

For orientation: IC50 means the point on the concentration scale where inhibition reaches its midpoint. Read a high IC50 as lower potency.

The assay deals with T1, AR transcriptional activity (Homo sapiens, UniProt P10275, T878A).
T1 construct: The LNCaP eGFP cell line was stably transfected with an androgen-responsive probasin-derived promoter fused to an eGFP reporter; endogenous in cells; host or cells: LNCaP eGFP (LN-ARR2PB-eGFP) human prostate cancer cells
T1 sequence (P10275 1-920 T878A): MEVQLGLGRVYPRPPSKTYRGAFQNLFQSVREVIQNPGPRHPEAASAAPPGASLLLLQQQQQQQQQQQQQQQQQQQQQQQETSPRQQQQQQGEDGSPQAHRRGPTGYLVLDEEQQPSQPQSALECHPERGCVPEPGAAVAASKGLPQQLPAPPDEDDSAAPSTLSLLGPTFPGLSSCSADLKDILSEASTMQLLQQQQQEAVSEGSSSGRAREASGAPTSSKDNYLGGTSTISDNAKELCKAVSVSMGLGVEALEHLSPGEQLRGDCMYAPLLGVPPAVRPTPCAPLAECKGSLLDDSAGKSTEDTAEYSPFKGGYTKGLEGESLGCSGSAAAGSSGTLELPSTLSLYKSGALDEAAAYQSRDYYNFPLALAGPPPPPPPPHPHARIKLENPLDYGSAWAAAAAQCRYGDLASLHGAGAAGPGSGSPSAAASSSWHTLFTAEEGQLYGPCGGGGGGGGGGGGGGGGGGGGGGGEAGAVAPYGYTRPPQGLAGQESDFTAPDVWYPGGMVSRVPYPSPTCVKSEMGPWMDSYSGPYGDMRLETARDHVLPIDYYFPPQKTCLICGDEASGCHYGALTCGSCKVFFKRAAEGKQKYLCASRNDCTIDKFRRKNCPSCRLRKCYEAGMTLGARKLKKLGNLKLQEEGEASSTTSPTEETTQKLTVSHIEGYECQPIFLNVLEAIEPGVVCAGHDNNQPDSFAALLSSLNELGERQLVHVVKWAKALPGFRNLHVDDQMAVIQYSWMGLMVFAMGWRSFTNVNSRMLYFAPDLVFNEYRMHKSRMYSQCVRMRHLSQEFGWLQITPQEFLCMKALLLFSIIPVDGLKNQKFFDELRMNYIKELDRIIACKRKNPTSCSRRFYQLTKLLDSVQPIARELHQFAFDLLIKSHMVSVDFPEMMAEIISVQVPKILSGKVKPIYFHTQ
The assay can be described thus: eGFP cellular AR transcription assay. The format is cell-based. The following applies: LNCaP eGFP cell line. From the text:
The DNA-binding domain is an attractive target for inhibition of AR dimerization and/or DNA binding. In silico computational drug discovery methods were used to conduct a virtual screen of >3 million purchasable lead-like compounds from the ZINC database (Irwin, J. et al.^11) to identify potential DBD binders. The in silico methods included large-scale docking, in-site rescoring and consensus voting procedures. It will be understood by a person of skill that COOH and NR2 may include the corresponding ions, for example carboxylate ions and ammonium ions, respectively. Alternatively, where the ions are shown, a person of skill in the art will appreciate that the counter ion may also be present. Furthermore, it will be appreciated by a person of skill that other moieties may include the corresponding ions, and where the ions are shown, a person of skill in the art will appreciate that the counter ion may also be present. […] Where the % inhibition, eGFP IC50 or the PSA IC50 has no value given, this may be because no measurement was taken or the value was not calculated, in the case of the % inhibition. In vitro identification of AR inhibitors targeting AR DBD The selected compounds were assessed with a non-destructive eGFP assay that quantifies levels of AR transcriptional activity, were identified (table below).
1. Cell Culture: LNCaP and PC3 human prostate cancer cells were obtained from American Type Culture Collection (ATCC, Manassas, Va.) and grown in RPMI 1640 medium supplemented with 5% fetal bovine serum (FBS) (Invitrogen). The LNCaP eGFP cell line was stably transfected with an androgen-responsive probasin-derived promoter fused to an eGFP reporter (LN-ARR2PB-eGFP) using a lentiviral approach, and were grown in phenol-red-free RPMI 1640 supplemented with 5% CSS. In-house developed MDV3100-resistant LNCaP cells were cultured in RPMI 1640 supplemented with 5% FBS and 10 μM MDV3100. All cells were maintained at 37° C. in 5% CO2.
2. eGFP cellular AR transcription assay: The AR transcriptional activity was assayed as previously described (Tavassoli, P., et al.^12).
Turning to `CC(C)(C)C1CN(c2nc(-n3cc(Br)nc3Br)cs2)CC(C(C)(C)C)O1` (centres unmarked) [Example 34, 2,6-ditert-butyl-4-[4-(2,4-dibromoimidazol-1-yl)thiazol-2-yl]morpholine], the “eGFP IC50” value is “inact”.

The molecule `CSc1nc(Br)cn1-c1csc(N2[C@@H]3CC[C@H]2COC3)n1` [Example 16, (1R,5S)-8-[4-(4-bromo-2-methylsulfanyl-imidazol-1-yl)thiazol-2-yl]-3-oxa-8-azabicyclo[3.2.1]octane] had a half-inhibitory concentration (IC50) of 140 nM.

Molecule `Clc1cn(-c2csc(N3CCOCC3)n2)cn1` [Example 47, 4-[4-(4-chloroimidazol-1-yl)thiazol-2-yl]morpholine] showed a 50% inhibitory concentration (IC50) of 970 nM.

With `Brc1cn(-c2csc(N3CCOC4CCCC43)n2)c(Br)n1` (centres unmarked) [Example 26, 4-[4-(2,4-dibromoimidazol-1-yl)thiazol-2-yl]-3,4a,5,6,7,7a-hexahydro-2H-cyclopenta[b][1,4]oxazine], 1530 nM corresponded to half-maximal inhibition (IC50).

`Cc1ncn(-c2csc(N3CCOCC3)n2)c1C` [Example 52, 4-[4-(4,5-dimethylimidazol-1-yl)thiazol-2-yl]morpholine] yielded an IC50 of 3650 nM.

In turn, `Brc1cn(-c2csc(N3CCOC4(CCOCC4)C3)n2)c(Br)n1` [Example 28, 4-[4-(2,4-dibromoimidazol-1-yl)thiazol-2-yl]-1,9-dioxa-4-azaspiro[5.5]undecane] showed an IC50 of 3120 nM.

`Brc1cn(-c2csc(N3CCOC(Cc4ccccc4)C3)n2)c(Br)n1` (centres unmarked) [Example 32, 2-benzyl-4-[4-(2,4-dibromoimidazol-1-yl)thiazol-2-yl]morpholine] showed a 50% inhibitory concentration (IC50) of 27400 nM.

Turning to `Brc1cn(-c2csc(N3CCOC(c4ccccc4)C3)n2)c(Br)n1` (centres unmarked) [Example 31, 4-[4-(2,4-dibromoimidazol-1-yl)thiazol-2-yl]-2-phenyl-morpholine], the IC50 is 8150 nM.

Regarding `Brc1ncn(-c2csc(N3C[C@@H]4C[C@H]3CO4)n2)c1Br` [Example 12, (1S,4S)-5-[4-(4,5-dibromoimidazol-1-yl)thiazol-2-yl]-2-oxa-5-azabicyclo[2.2.1]heptane], the 50% inhibitory concentration (IC50) came out at 1320 nM.

As to `Brc1cn(-c2csc(N3CC4CC3CO4)n2)c(Br)n1` (centres unmarked) [Example 27, 5-[4-(2,4-dibromoimidazol-1-yl)thiazol-2-yl]-2-oxa-5-azabicyclo[2.2.1]heptane], it took 1610 nM to reach half-maximal inhibition (IC50).

As to `Brc1cn(-c2csc(N3CCOC4CCCCC43)n2)c(Br)n1` (centres unmarked) [Example 29, 4-[4-(2,4-dibromoimidazol-1-yl)thiazol-2-yl]-2,3,4a,5,6,7,8,8a-octahydrobenzo[b][1,4]oxazine], the IC50 was 3150 nM.

`Brc1ncn(-c2csc(N3CCOC4(COC4)C3)n2)c1Br` [Example 65, 8-(4-(4,5-dibromo-1H-imidazol-1-yl)thiazol-2-yl)-2,5-dioxa-8-azaspiro[3.5]nonane] registered a half-inhibitory concentration (IC50) of 4470 nM.

Molecule `Brc1cn(-c2csc(N3C[C@@H]4C[C@H]3CO4)n2)c(Br)n1` [Example 11, (1S,4S)-5-[4-(2,4-dibromoimidazol-1-yl)thiazol-2-yl]-2-oxa-5-azabicyclo[2.2.1]heptane] came in with an IC50 of 1180 nM.

In turn, `Brc1cn(-c2csc(N3CCOC(c4cccs4)C3)n2)c(Br)n1` (centres unmarked) [Example 33, 4-[4-(2,4-dibromoimidazol-1-yl)thiazol-2-yl]-2-(2-thienyl)morpholine] showed an IC50 of 170 nM.

Regarding `N#Cc1nc(Br)cn1-c1csc(N2CCOCC2)n1` [Example 51, 4-bromo-1-(2-morpholinothiazol-4-yl)imidazole-2-carbonitrile], half-maximal inhibition (IC50) required 1600 nM.

The molecule `Brc1cn(-c2csc(N3CCOCC3C3CC3)n2)c(Br)n1` (centres unmarked) [Example 14, 3-cyclopropyl-4-[4-(2,4-dibromoimidazol-1-yl)thiazol-2-yl]morpholine] showed an IC50 of 120 nM.

As to `FC(F)(F)C1CN(c2nc(-n3cc(Br)nc3Br)cs2)CCO1` (centres unmarked) [Example 25, 4-[4-(2,4-dibromoimidazol-1-yl)thiazol-2-yl]-2-(trifluoromethyl)morpholine], the midpoint of inhibition, the IC50, lay at 1700 nM.
